In one data set the test system is A. baumannii. On the set-up: method as in PMID 32195571. Particulars: cited from earlier work.
The subject of data set [1] is VRSA. On the set-up: method as in PMID 32195571. The conditions noted are these: strain not specified, Fig. 1 legend; MIC against VRSA previously reported; cited from earlier work.
For data set [2], the system named is VRSA 4 (vancomycin-resistant S. aureus). On the set-up: method as in PMID 32195571. The conditions noted are these: previously reported; cited from earlier work.
In a further data set the test system is VRE. The data set is described as follows: MIC against VRE (strains taken together). The format is cell-based. The conditions noted are these: ratio of MICs. As for the experimental part:
(§1) The increase in the carbon content of substituted moieties from six (1) to seven (2 and 3) to ten (5) to twelve (4), increased activity.
(§2) VanQAmC14 (10): Yield 65%; HPLC purity 96%; 1H-NMR (400 MHz, DMSO-d6) δ/ppm:
(§3) Test compound was assayed in a micro -dilution broth format as per the CLSI guideline. The bacterial freeze dried stock samples were stored at -80 °C. About 5 μL of these stocks were added to 3 mL of the respective broth and the culture was grown for 6 h at 37°C with prior to the experiments. This 6 h grown culture was diluted to give effective cell concentration of 10 5 CFU/mL which was then used for determining MIC. Compounds were serially diluted 2 -fold, in sterile millipore water and 50 μL of these serial dilutions were added to the wells of 96 well plate followed by the addition of about 150 μL of bacterial solution. The plates were then incubated for 18-24 h at 37 °C. The O.D. value at 600 nm was recorded using TECAN (Infinite series, M200 pro) Plate Reade r. Each concentration had triplicate values and the whole experiment was done at least twice and the MIC value was determined by taking the average of triplicate O. D. values for each concentration and plotting it against concentration. The data was then subjected to sigmoidal fitting. From the curve the MIC value was determined, as the point where the O. D. was similar to that of control having no bacteria.

For another data set, the system named is B. subtilis. The experiment in a line: Membrane permeabilization assay, propidium iodide uptake. The format is cell-based. The conditions noted are these: exponentially growing B. subtilis, 10 μM, PI uptake. As for the experimental part: The kinetics of permeabilization of membranes of MRSA and B. subtilis by the compounds was measured by the uptake of propidium iodide (PI). […] When the membrane integrity is compromised, it enters the cell and fluoresces upon binding to the DNA. Both VanQbiph (4) and VanQAmC10 (8) permeabilized the membrane in a concentration-dependent manner (Fig. S2 ^†). […] They caused gradual permeabilization against the stationary phase cells of MRSA as well (Fig. 2F). The extent of permeabilization was higher for VanQAmC10 (8) than VanQbiph (4) against both the log-phase and stationary-phase bacteria similar to that observed during depolarisation.
50 μL of serially diluted compound was added into 96 well microtiter plates. Freshly drawn, heparanized human blood was centrifuged down to obtain the erythrocytes and re-suspended to 5 vol % in PBS (pH 7.4). […] 100 μL of the supernatant from each well were transferred into fresh microtiter plates, and A540 was measured.
% haemolysis = (A - A0)/(Atotal -A0) × 100, where A is the absorbance of the test well, A 0 the absorbance of the negative controls (without compound), and A total the absorbance of 100 % hemolysis wells (with Triton X -100), all at 540 nm. […]
2 h post incubation with dye, the absorbance was measured at 570 nm using 600 nm as […]
The bactericidal activity of the compounds was evaluated with the time kill kinetics assay. […]

The subject of data set [3] is VRSA. The data set is described as follows: MIC against VRSA (strain not specified / strains taken together). It counts as cell-based, S. aureus. Particulars: ratio of MICs. As for the experimental part: as §1, §2, §3

As to `CCCCCCCCCCNC(=O)C[N+](C)(C)CCCNC(=O)C1NC(=O)C2NC(=O)C(NC(=O)C3NC(=O)C(CC(N)=O)NC(=O)C(NC(=O)C(CC(C)C)NC)C(O)c4ccc(c(Cl)c4)Oc4cc3cc(c4OC3OC(CO)C(O)C(O)C3OC3CC(C)(N)C(O)C(C)O3)Oc3ccc(cc3Cl)C2O)c2ccc(O)c(c2)-c2c(O)cc(O)cc21` (stereo not shown) [VanQAmC10 (8)], the “resistance induction in A. baumannii” value with A. baumannii was “does not induce resistance”. Also, the “MIC against VRSA” value in the data set on VRSA [1] was 1.6 µM. Besides, the “Minimum inhibitory concentration, VRSA 4” value in data set [2] was 1.6 to 3.1 µM. For the same compound, the “fold enhancement in activity as compared to vancomycin against VRE” value in the data set on VRE is approximately 160 fold. In addition, the “time to membrane permeabilization” value in the data set on B. subtilis was not above 4 min.
In the case of `CNC(CC(C)C)C(=O)NC1C(=O)NC(CC(N)=O)C(=O)NC2C(=O)NC3C(=O)NC(C(=O)NC(C(=O)NCCC[N+](C)(C)Cc4ccc(-c5ccccc5)cc4)c4cc(O)cc(O)c4-c4cc3ccc4O)C(O)c3ccc(c(Cl)c3)Oc3cc2cc(c3OC2OC(CO)C(O)C(O)C2OC2CC(C)(N)C(O)C(C)O2)Oc2ccc(cc2Cl)C1O` (stereo not shown) [VanQbiph (4)], the “fold increase in activity as compared to vancomycin against VRSA” value in the data set with VRSA [3] was in the range of 22 to 88 fold. The “fold enhancement in activity as compared to vancomycin against VRE” value in the data set on VRE was 40- to 60 fold.

The values are drawn from paper PMC9977398, “Next-generation membrane-active glycopeptide antibiotics that also inhibit bacterial cell division” (Chemical Science, 2023).
